Laboratory results published in ChEMBL document CHEMBL1909046, “DrugMatrix in vitro pharmacology data”.

Key:
[1] = biological target: T1, D(4) dopamine receptor (Homo sapiens, UniProt P21917); experiment: DRUGMATRIX: Dopamine D4.2 radioligand binding (ligand: [3H] Spiperone); type: cell membranes, CHO-K1, Membrane; details: cho-k1; Not Active = under 50% inhibition at 10 µM
T1 sequence (P21917 whole entry): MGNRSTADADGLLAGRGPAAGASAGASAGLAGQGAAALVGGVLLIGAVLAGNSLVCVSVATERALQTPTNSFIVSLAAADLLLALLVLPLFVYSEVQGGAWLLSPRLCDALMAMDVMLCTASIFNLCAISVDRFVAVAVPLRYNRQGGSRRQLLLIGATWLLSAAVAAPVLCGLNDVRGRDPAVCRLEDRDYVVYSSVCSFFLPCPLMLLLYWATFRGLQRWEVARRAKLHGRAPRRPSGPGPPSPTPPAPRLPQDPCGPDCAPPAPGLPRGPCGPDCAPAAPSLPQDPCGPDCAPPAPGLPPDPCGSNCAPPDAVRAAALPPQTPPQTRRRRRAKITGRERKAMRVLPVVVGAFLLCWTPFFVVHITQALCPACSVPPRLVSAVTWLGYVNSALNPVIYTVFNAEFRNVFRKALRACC

[2] = biological target: Protein phosphatase 3 catalytic subunit alpha (Homo sapiens, UniProt Q08209); parameters: species or system Escherichia coli;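 also: inhibition of calcineurin (PP2B) enzyme activity, measured with DiFMUP as the substrate; in other assays of this panel Not Active means under 50% inhibition at 10 µM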
[3] = DRUGMATRIX: Sodium/nucleoside co-transporter radioligand binding (ligand: nitrobenzylthioinosine); type: cell membranes, Cavia porcellus, Dunkin-Hartley, Cerebral cortex, Membrane; details: Not Active = under 50% inhibition at 10 µM
[4] = biological target: T2, C-X-C chemokine receptor type 2 (Homo sapiens, UniProt P25025); type: cell membranes, Membrane; details: cho-k1; also: in other assays of this panel Not Active means under 50% inhibition at 10 µM
T2 sequence (P25025 whole entry): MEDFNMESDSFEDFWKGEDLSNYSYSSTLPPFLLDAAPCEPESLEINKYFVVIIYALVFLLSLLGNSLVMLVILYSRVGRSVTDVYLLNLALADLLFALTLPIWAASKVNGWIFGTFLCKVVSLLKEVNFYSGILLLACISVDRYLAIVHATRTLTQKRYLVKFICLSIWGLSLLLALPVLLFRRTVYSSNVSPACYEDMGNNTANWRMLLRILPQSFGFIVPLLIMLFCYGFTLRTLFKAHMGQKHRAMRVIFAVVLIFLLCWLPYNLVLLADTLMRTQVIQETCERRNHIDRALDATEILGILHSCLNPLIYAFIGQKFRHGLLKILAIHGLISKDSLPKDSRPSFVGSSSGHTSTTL

[5] = biological target: Estrogen receptor beta (Homo sapiens, UniProt Q92731); details: sf9; also: in other assays of this panel Not Active means under 50% inhibition at 10 µM
Estrogen receptor beta, sequence (Q92731 whole entry): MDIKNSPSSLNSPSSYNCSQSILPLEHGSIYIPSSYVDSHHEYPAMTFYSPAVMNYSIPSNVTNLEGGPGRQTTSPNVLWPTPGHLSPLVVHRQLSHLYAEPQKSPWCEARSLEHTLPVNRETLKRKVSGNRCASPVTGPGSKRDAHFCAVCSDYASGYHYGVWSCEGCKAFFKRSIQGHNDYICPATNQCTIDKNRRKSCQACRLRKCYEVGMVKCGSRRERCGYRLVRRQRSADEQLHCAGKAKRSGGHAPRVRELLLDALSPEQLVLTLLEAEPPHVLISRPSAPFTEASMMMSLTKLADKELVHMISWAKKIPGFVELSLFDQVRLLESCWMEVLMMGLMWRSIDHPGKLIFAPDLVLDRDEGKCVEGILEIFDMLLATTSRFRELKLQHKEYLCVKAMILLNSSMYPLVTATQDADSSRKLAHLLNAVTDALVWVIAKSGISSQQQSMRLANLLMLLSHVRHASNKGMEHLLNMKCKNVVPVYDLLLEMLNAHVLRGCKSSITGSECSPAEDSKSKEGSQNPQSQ

[6] = DRUGMATRIX: beta-Lactamase enzyme inhibition (substrate: Nitrocefin); parameters: species or system Bacillus cereus; details: Not Active = under 50% inhibition at 10 µM
[7] = biological target: T3, Angiotensin-converting enzyme (Oryctolagus cuniculus, UniProt P12822); type: tissue-based, Lung;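 also: enzymatic inhibition of angiotensin-converting enzyme measured with FAPGG as the substrate; in other assays of this panel Not Active means under 50% inhibition at 10 µM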
T3 sequence (P12822 whole entry): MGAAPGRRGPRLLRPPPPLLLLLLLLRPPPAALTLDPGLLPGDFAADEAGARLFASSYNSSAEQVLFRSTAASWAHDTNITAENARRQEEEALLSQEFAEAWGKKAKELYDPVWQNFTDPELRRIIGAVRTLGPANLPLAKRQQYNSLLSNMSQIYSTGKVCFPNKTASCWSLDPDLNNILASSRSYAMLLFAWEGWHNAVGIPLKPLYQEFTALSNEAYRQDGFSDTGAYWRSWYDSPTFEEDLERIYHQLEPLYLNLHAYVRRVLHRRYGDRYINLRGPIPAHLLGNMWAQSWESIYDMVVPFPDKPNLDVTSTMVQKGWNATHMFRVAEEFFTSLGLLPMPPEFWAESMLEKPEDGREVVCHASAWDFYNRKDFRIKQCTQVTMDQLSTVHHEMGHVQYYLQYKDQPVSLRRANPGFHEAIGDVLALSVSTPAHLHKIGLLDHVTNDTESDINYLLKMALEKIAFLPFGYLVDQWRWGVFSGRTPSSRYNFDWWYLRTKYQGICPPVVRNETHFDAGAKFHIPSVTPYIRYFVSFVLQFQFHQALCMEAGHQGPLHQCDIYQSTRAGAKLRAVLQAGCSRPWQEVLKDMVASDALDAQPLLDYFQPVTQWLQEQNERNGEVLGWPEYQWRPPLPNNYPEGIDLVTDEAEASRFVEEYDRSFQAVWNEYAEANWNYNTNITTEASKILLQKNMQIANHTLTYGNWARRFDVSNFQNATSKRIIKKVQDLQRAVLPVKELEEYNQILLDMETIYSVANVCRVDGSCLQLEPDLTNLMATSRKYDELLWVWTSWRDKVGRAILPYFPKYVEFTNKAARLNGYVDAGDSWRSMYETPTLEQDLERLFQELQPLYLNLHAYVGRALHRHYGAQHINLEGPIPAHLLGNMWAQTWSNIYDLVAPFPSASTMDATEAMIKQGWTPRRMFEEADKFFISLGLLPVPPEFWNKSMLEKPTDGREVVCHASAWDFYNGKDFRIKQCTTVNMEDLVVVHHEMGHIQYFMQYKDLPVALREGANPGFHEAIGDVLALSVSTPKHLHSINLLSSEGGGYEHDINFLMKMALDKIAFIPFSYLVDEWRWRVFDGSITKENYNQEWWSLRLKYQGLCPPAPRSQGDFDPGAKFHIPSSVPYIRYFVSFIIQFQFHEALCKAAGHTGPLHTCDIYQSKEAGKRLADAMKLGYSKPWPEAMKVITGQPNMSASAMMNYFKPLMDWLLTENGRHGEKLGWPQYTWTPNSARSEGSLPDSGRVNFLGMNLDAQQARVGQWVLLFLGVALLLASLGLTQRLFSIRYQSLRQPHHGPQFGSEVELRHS

[8] = DRUGMATRIX: GABAA, Muscimol, Central radioligand binding (ligand: [3H] Muscimol); type: cell membranes, Rattus norvegicus, Wistar, Brain, Membrane; details: Not Active = under 50% inhibition at 10 µM
[9] = biological target: Cytochrome P450 2C19 (Homo sapiens, UniProt P33261); details: bti-tn-5b1-4; also: in other assays of this panel Not Active means under 50% inhibition at 10 µM
Cytochrome P450 2C19, sequence (P33261 whole entry): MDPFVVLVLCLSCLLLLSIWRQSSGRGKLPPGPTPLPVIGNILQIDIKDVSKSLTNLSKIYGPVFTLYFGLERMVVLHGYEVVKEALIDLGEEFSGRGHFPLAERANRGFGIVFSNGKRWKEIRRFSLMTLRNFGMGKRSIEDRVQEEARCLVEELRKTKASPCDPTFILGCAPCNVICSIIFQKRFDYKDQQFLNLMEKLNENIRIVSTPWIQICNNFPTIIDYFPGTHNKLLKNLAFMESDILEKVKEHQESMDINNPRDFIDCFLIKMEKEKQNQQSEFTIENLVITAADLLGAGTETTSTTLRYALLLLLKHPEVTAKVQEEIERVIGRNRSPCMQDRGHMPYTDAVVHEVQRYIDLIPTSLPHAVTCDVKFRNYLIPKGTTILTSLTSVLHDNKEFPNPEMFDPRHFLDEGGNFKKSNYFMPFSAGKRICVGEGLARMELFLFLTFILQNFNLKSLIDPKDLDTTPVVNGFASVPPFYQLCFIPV

CN(C)c1nc(N(C)C)nc(N(C)C)n1 [ALTRETAMINE]
Not Active: IC50 [1] | IC50 [2] | IC50 [3] | Ki [3] | IC50 [4] | IC50 [5] | IC50 [6] | Ki [6] | IC50 [7] | IC50 [8] | Ki [8]

Nc1c(Br)cc(Br)cc1CN[C@H]1CC[C@H](O)CC1 [AMBROXOL]
Not Active: IC50 [1] | IC50 [2] | IC50 [3] | Ki [3] | IC50 [4] | IC50 [5] | IC50 [6] | Ki [6] | IC50 [7] | IC50 [8] | Ki [8]

CC(NC(C)(C)C)C(=O)c1cccc(Cl)c1 (configuration not stated) [BUPROPION]
Not Active: IC50 [1] | IC50 [2] | IC50 [3] | Ki [3] | IC50 [4] | IC50 [5] | IC50 [6] | Ki [6] | IC50 [7] | IC50 [8] | Ki [8]

C[C@H](CS)C(=O)N1CCC[C@H]1C(=O)O [CAPTOPRIL]
Not Active: IC50 [1] | IC50 [2] | IC50 [3] | Ki [3] | IC50 [9] | Ki [9] | IC50 [4] | IC50 [5] | IC50 [6] | Ki [6] | IC50 [8] | Ki [8]

CN(C)CCCN1c2ccccc2Sc2ccc(Cl)cc21 [CHLORPROMAZINE]
Not Active: IC50 [2] | IC50 [3] | Ki [3] | IC50 [4] | IC50 [5] | IC50 [6] | Ki [6] | IC50 [7] | IC50 [8] | Ki [8]

CC(=O)O[C@@]12CO[C@@H]1C[C@H](O)[C@@]1(C)C(=O)[C@H](O)C3=C(C)[C@@H](OC(=O)[C@H](O)[C@@H](NC(=O)OC(C)(C)C)c4ccccc4)C[C@@](O)([C@@H](OC(=O)c4ccccc4)[C@H]21)C3(C)C.O.O.O [DOCETAXEL]
Not Active: IC50 [1] | IC50 [2] | IC50 [3] | Ki [3] | IC50 [9] | Ki [9] | IC50 [4] | IC50 [6] | Ki [6] | IC50 [7] | IC50 [8] | Ki [8]

C[C@H]1c2cccc(O)c2C(=O)C2=C(O)[C@]3(O)C(=O)C(C(N)=O)=C(O)[C@@H](N(C)C)[C@@H]3[C@@H](O)[C@@H]21.O [DOXYCYCLINE]
Not Active: IC50 [1] | IC50 [2] | IC50 [3] | Ki [3] | IC50 [9] | Ki [9] | IC50 [4] | IC50 [6] | Ki [6] | IC50 [7] | IC50 [8] | Ki [8]

Nc1nc(N)nc(-c2cc(Cl)ccc2Cl)n1.O=C(O)/C=C\C(=O)O [IRSOGLADINE MALEATE]
Not Active: IC50 [1] | IC50 [2] | IC50 [3] | Ki [3] | IC50 [9] | Ki [9] | IC50 [4] | IC50 [6] | Ki [6] | IC50 [7] | IC50 [8] | Ki [8]

C[C@](N)(Cc1ccc(O)c(O)c1)C(=O)O [METHYLDOPA]
Not Active: IC50 [1] | IC50 [2] | IC50 [3] | Ki [3] | IC50 [9] | Ki [9] | IC50 [4] | IC50 [6] | Ki [6] | IC50 [7] | IC50 [8] | Ki [8]

C[C@]12CCC(=O)C=C1CC[C@@H]1[C@@H]2CC[C@@]2(C)[C@H]1CC[C@]2(C)O [METHYLTESTOSTERONE]
Not Active: IC50 [1] | IC50 [2] | IC50 [3] | Ki [3] | IC50 [9] | Ki [9] | IC50 [4] | IC50 [6] | Ki [6] | IC50 [7] | IC50 [8] | Ki [8]

CC(O)CO (configuration not stated) [PROPYLENE GLYCOL]
Not Active: IC50 [1] | IC50 [2] | IC50 [3] | Ki [3] | IC50 [9] | Ki [9] | IC50 [4] | IC50 [6] | Ki [6] | IC50 [7] | IC50 [8] | Ki [8]
